Read-outs that look alike come from different tables or passages of the source.

In series [1] the test system is intraocular proliferative retinopathy. Briefly: Virtual discovery: intravitreal injection, intraocular proliferative retinopathy. The format is in vivo. The text has this:
With the onset of proliferative retinopathy however conventional anti-VEGF therapy causes increased fibrosis. Van Geest R. J. et al., A shift in the balance of vascular endothelial growth factor and connective tissue growth factor by bevacizumab causes the angiofibrotic switch in proliferative diabetic retinopathy Br J Ophthalmol, 2012 April, 96(4), 587-90. […]. The suppression of intraocular proliferative retinopathy in turn suppresses fibrotic induction and the most severe manifestations of proliferative eye disease. This suppression also is virtually discovered to occur when the methyl of the preferred embodiments is replaced by any alkyl group. […]. As diabetic macular edema is amenable to anti-VEGF therapy, its use in patients with preproliferative severe peripheral ischemic disease, and or patients with early proliferative disease may enhance the onset of fibrovascular proliferative morbidity, whereas the present invention using MTKIs combining VEGF suppression with c-MET suppression may both reduce diabetic macular edema and suppress diabetic fibrovascular proliferation.

The target of series [2] is T1, VEGFR2 (Homo sapiens (Human), UniProt P35968). The conditions noted are these: human umbilical vein endothelial cells; cited from earlier work.
Target sequence in this assay (P35968 20-1356): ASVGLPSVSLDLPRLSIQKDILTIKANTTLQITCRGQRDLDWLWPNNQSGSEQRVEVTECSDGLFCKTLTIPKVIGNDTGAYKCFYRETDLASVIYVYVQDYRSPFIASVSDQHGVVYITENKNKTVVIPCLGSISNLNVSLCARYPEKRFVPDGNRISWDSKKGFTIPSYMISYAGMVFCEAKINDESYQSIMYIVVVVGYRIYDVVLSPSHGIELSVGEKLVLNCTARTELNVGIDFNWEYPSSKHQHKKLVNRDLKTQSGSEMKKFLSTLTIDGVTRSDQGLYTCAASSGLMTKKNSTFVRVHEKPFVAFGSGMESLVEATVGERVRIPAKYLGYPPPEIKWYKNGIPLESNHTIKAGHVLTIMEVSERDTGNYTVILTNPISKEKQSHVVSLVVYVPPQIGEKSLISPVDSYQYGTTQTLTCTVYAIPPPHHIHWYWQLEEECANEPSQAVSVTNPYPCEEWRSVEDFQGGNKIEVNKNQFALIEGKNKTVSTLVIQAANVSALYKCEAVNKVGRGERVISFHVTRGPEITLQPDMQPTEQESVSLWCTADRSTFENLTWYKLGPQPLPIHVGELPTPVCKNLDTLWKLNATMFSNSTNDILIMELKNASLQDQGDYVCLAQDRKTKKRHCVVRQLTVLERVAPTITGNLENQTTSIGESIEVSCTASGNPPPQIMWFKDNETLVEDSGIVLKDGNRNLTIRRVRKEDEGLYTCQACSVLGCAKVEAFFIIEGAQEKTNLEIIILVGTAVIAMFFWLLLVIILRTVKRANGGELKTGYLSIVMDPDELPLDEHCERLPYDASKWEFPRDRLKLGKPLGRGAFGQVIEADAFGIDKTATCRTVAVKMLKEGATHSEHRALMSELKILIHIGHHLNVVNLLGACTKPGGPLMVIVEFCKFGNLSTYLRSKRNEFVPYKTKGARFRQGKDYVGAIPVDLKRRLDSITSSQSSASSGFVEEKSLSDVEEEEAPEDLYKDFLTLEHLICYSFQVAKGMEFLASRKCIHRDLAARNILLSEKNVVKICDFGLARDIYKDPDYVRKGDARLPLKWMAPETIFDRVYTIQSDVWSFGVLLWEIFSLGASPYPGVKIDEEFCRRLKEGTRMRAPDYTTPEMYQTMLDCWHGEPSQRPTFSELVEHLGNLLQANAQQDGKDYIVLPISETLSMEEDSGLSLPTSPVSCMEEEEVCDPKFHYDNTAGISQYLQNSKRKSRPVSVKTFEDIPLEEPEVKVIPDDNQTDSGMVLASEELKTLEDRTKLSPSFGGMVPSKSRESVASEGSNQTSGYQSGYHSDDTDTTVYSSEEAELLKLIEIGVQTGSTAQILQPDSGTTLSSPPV
The test system of series [3] is VEGFR. The conditions noted are these: read-out: IC50 (concentration required for efficacy); cited from earlier work.
Series [4] has as its system VEGFR. Briefly: Virtual discovery: suppression of VEGFR. The conditions noted are these: virtually discovered.
The subject of series [5] is subretinal choroidal neovascularization (CNV). Kind of series: Subretinal choroidal neovascularization model after intravitreal injection (virtual example). The conditions noted are these: intravitreal 50 uL, 10-20 mg/mL. The format is in vivo, mammal (preferably a pigmented rabbit or a primate). The protocol:
The first solution was then added to a saturated fatty acid (e.g. octanoic acid) combined with lecithin or lecithin derivatives (e.g. phosphatidyl choline), a glycerol fatty acid ester (e.g. propylene glycol fatty acid esters such as polyoxyethyleneglycerol triricinoleate), a sorbitan fatty acid ester (e.g. Span® 20, Span® 80) or a olyoxylethylene sorbitan fatty acid ester (e.g. Tween® 20, Tween® 80), and optionally a co-surfactant (e.g. propylene glycol, glycerol, PEG 400, 1,2-propanediol), which were then solubilized as a microemulsion using commercial lipoemulsion techniques (e.g. Intralipid®, Abbolipid). […] 50 uL of either Lucentis® or Eylea® was administered into the remaining eye of the mammal. 2 weeks after administration a subretinal choroidal neovascularization (CNV) was caused in the eyes of the mammal using techniques explained in Qui G et al., A new model of experimental subretinal neovascularization in the rabbit, Exp Eye Res, 2006 July, 83(1), 141-152. 6 weeks after subretinal CNV eyes of the mammal were sacrificed for examination.

The target in series [6] is T1, VEGFR2. The conditions noted are these: HUVEC, in vitro angiogenic assays; read-out: IC50 VEGFR2 inhibition; cited from earlier work.
Series [7] in a line: Residence in the vitreous humor. The conditions noted are these: estimated for its molecular weight. The format is in vivo.

Turning to foretinib N-acyl methyl palmitate, the “suppression of intraocular proliferative retinopathy” value in series [1] was “suppress intraocular proliferative retinopathy”.

Turning to `Cn1cnc(-c2cc3nccc(Oc4ccc(NC(=S)NC(=O)Cc5ccccc5)cc4F)c3s2)c1` [MGCD-265], the IC50 in series [2] was 3 nM.

On to ranibizumab [Lucentis], for which, in series [3], the IC50 was about 19 nM.

In the case of `CCCCCCCCCCCCCCCC(=O)OC[n+]1ccc(Oc2ccc(NC(=O)C3(C(=O)Nc4ccc(F)cc4)CC3)cc2)c2cc(OC)c(OC)cc21` [Cabozantinib N-acyl methyl palmitate], the “suppression of VEGFR” value in series [4] is on record as “suppress”. In series [5], the “suppression of macular edema” value was “long-lasting suppression of macular edema”. The “suppression of fibrovascular proliferation” value in series [5] (vs Lucentis or Eylea in the other eye, CNV 2 weeks after dosing, examined 6 weeks later) is “Greater suppression of fibrovascular proliferation”. Besides, in series [1], the “suppression of intraocular proliferative retinopathy” value is on record as “suppress intraocular proliferative retinopathy”.

Take bevacizumab [Avastin]: the IC50 in series [6] was about 1.4 nM.

For `Cc1ccc(Nc2nccc(N(C)c3ccc4c(C)n(C)nc4c3)n2)cc1S(N)(=O)=O` [pazopantinib, Pazopantinib], in series [7], the intravitreal clearance result is reported as “within hours”.

(Values after patent US10464902B1, “Multi-tyrosine kinase inhibitors derivatives and methods of use” (Ontogenesis, LLC, priority 2015, dated 2019).)
